Where two headings read alike, the source gives them in different places.
Columns and labels:
5-HT2A receptors = 5-HT2A receptors (Homo sapiens (Human), UniProt P28223); experiment: 5-HT2A receptor radioligand competition binding assay ([3H]-ketanserin)
Protocol: The affinity of the compounds of the present disclosure for 5-HT2A receptors was determined by a radioligand competition binding assay. In the first step, a cell membrane component containing specific 5-HT2A receptor was prepared. A 10 cm dish was used for transfection with […] of 5-HT2A receptors and 40 μL of PEI. After 48 hours, the 10 cm dish was taken out from the cell incubator and the cultured cells had expressed the 5-HT2A receptors. A vacuum pump was used to suck off the culture medium, 3 mL of lysis buffer was added to each culture dish, and the cells were placed in a 4° C. cold room for 10 minutes. After the cells were detached, the cells were transferred to a 15 mL centrifuge tube and centrifuged at 1500 rpm for 5 minutes at 4° C., and the supernatant was discarded. The cell pellet was transferred to a tissue homogenizer, and 3 mL of lysis buffer was added and fully ground until the cells were broken. Then, cell suspension was equally aliquoted into several EP tubes, centrifuged at 12000 rpm for 5 minutes at 4° C., and the supernatant was discarded. The precipitate was the cell membrane component containing the 5-HT2A receptors. […] First, a standard binding buffer was added to the cell membrane component containing the 5-HT2A receptors, and the cell membrane was disrupted and resuspended with an electric tissue homogenizer. 30 μL of membrane protein suspension was added to each well of a 96-well plate. Then, 30 μL of different drugs were added to the 96-well plate sequentially from bottom to top to ensure that the final drug concentrations were 10^−5 M, 10^−6 M, 10^−7 M, 10^−8 M, 10^−9 M, and 0 M, with two replicates per treatment. Next, 30 μL of [^3H]-ketanserin was added to each well of the 96-well plate. The plate was incubated at room temperature in the dark for 2 hours. Detection was conducted. The machine readout value reflected the amount of [^3H]-ketanserin bound on the membrane, and after further data processing, the affinity Ki values of different compounds for the 5-HT2A receptors were obtained.

dopamine D2 receptors [1] = target: T1, dopamine D2 receptors (Homo sapiens (Human), UniProt P14416); experiment: Dopamine D2 receptor β-arrestin2 BRET (recruitment); format: cell-based; details: for EC50: unit printed only in Cariprazine cell, read-out: β-arrestin2 BRET EC50; for Emax: relative to endogenous ligand dopamine, read-out: β-arrestin2 BRET Emax % ± SEM
T1 sequence (P14416 whole entry): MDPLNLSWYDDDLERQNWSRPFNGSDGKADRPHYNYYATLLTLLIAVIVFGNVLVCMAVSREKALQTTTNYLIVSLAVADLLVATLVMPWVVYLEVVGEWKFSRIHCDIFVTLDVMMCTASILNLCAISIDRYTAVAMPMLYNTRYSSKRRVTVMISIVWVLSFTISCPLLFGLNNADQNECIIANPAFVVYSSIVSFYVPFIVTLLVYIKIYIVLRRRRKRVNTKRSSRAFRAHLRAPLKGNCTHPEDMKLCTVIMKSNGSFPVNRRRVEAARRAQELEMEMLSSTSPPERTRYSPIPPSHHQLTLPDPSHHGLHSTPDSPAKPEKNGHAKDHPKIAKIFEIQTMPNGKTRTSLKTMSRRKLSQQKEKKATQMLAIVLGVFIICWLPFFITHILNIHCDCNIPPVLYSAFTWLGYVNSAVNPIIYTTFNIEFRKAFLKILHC
Protocol: (§1) To examine the downstream G-protein signaling pathway mediated by dopamine D2 receptors, on the first day, a 6 cm culture dish was used for transfection with 1 μg of dopamine D2 receptors, 1 μg of Gαi1 containing C-terminal seaweed luciferase (Gαi1-Rluc), 1 μg of Gβ3, 1 μg of Gγ9 containing C-terminal green fluorescent protein (Gγ9-GFP) mixed with 16 μL of PEI. At the same time, in order to examine the downstream β-arrestin2 signaling pathway mediated by dopamine D2 receptors, on the first day, a 6 cm culture dish was used for transfection with […] of dopamine D2 receptors containing C-terminal seaweed luciferase (D2-Rluc), […] of G protein-coupled receptor kinase 2 (GRK2), […] of β-arrestin2 containing N-terminal green fluorescent protein (GFP2-ARRB2) mixed with 14 μL of PEI. The next day, the confluent cells of a 6 cm culture dish were digested and reseeded into a 96-well plate with 100 μL of culture medium added to each well. On the third day, the drugs were added for test. The 96-well plate was taken out from the cell incubator to decant the culture medium, 40 μL of the substrate coelenterazine 400a (final concentration of 5 μM) was added to each well, and then 20 μL of different drugs were added sequentially from left to right to ensure that the final concentration of the drug decreased gradually from bottom to top, with two replicates per treatment. Finally, the prepared samples were loaded on machine for test. The machine readout value reflected the recruitment of β-arrestin2 to the membrane or the dissociation of G protein trimer. The former indicated the degree of activation of the β-arrestin2 signaling pathway downstream of the dopamine D2 receptors, and the latter indicated the degree of activation of the G protein signaling pathway downstream of the dopamine D2 receptors.

[2] = target: 5-hydroxytryptamine 1A (5-HT1A) receptors (Homo sapiens (Human), UniProt P08908); experiment: 5-HT1A receptor Gαi1 BRET (G protein trimer dissociation); format: cell-based; details: relative to endogenous ligand 5-hydroxytryptamine
5-hydroxytryptamine 1A (5-HT1A) receptors, sequence (P08908 whole entry): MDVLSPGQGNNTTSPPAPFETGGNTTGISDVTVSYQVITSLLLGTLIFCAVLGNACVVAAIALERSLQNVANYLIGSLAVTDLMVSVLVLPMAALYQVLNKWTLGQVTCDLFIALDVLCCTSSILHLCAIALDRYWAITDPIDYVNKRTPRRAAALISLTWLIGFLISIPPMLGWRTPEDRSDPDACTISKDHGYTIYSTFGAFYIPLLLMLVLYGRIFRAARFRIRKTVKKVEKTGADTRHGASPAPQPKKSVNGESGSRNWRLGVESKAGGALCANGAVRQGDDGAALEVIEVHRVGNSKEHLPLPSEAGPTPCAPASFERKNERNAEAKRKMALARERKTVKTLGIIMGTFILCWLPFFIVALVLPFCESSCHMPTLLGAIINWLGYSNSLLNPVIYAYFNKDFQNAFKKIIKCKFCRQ

dopamine D2 receptors [3] = target: T1, dopamine D2 receptors; experiment: Dopamine D2 receptor radioligand competition binding assay ([3H]-Methylspiperone); details: [3H]-Methylspiperone 0.3 to 0.5 nM, 293T membranes
Protocol: The affinity of the compounds of the present disclosure for dopamine D2 receptors was determined by a radioligand competition binding assay.
In the first step, a cell membrane component containing specific dopamine D2 receptors was prepared. A 10 cm culture dish was used for transfection with […] of dopamine D2 receptors and 40 μL of polyethylenimine (PEI hereafter). […] A vacuum pump was used to suck off the culture medium, 3 mL of lysis buffer was added to each culture dish, and the cells were placed in a 4° C. cold room for 10 minutes. After the cells were detached, the cells were transferred to a 15 mL centrifuge tube and centrifuged at 1500 rpm for 5 minutes at 4° C., and the supernatant was discarded. The cell pellet was transferred to a tissue homogenizer, and 3 mL of lysis buffer was added and fully ground until the cells were broken. Then, cell suspension was equally aliquoted into several EP tubes, centrifuged at 12000 rpm for 5 minutes at 4° C., and the supernatant was discarded. The precipitate was the cell membrane component containing the dopamine D2 receptors.
First, a standard binding buffer was added to the cell membrane component containing the dopamine D2 receptors, and the cell membrane was disrupted and resuspended with an electric tissue homogenizer. 30 μL of membrane protein suspension was added to each well of a 96-well plate. Then, 30 μL of different drugs were added to the 96-well plate sequentially from bottom to top to ensure that the final drug concentrations were 10^−5 M, 10^−6 M, 10^−7 M, 10^−8 M, 10^−9 M, and 0 M, with two replicates per treatment. Next, 30 μL of [3H]-Methylspiperone was added to each well of the 96-well plate. The plate was incubated at room temperature in the dark for 2 hours. Detection was conducted. The machine readout value reflected the amount of [3H]-Methylspiperone bound on the membrane, and after further data processing, the affinity Ki values of different compounds for the dopamine D2 receptors were obtained.

dopamine D2 receptors [4] = target: T1, dopamine D2 receptors; experiment: Dopamine D2 receptor Gαi1 BRET (G protein trimer dissociation); format: cell-based; details: for Emax: relative to endogenous ligand dopamine, read-out: Gαi1 BRET Emax % ± SEM
Protocol: as §1

[5] = [3H]-ketanserin, 293T membranes, read-out: Ki
[6] = read-out: Gαi1 BRET pEC50 ± SEM (converted)
[7] = unit printed only in Cariprazine cell, read-out: Gαi1 BRET EC50

5-HT2A receptors, sequence (P28223 whole entry): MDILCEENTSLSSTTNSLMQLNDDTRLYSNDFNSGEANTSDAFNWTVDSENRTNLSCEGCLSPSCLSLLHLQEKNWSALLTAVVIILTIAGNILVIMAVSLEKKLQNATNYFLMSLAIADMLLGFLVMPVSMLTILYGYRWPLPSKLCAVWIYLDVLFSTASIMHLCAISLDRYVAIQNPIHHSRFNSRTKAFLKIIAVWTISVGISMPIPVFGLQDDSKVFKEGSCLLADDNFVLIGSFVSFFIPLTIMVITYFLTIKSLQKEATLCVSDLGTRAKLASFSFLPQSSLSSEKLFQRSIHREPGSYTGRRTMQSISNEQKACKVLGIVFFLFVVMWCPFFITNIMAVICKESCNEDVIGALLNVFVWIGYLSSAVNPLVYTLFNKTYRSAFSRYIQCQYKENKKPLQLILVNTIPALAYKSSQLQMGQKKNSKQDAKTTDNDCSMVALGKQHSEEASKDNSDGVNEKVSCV

SMILES | EC50 (dopamine D2 receptors [1]) | Emax [2] | Affinity pKi ± SEM (dopamine D2 receptors [3]) | Ki (dopamine D2 receptors [3]; read-out: Affinity Ki) | Emax (dopamine D2 receptors [1]) | other results
CCOc1cccc2c3c(oc12)CN(CCCCOc1ccc2ccc(=O)[nH]c2c1)CC3 [I-A16, 7-(4-(8-ethoxy-3,4-dihydrobenzofuro[2,3-c]pyridin-2(1H)-yl)butoxy)quinolin-2(1H)-one] | 0.0113 µM | 85.9% | (7.78 ± 0.41) | 0.0165 µM | – | Ki (5-HT2A receptors): 1.32 µM; affinity for 5-HT2A receptors (in words) (5-HT2A receptors): very weak affinity; β-arrestin2 BRET pEC50 ± SEM (dopamine D2 receptors [1]): (7.94 ± 0.11)
CC(C)Oc1cccc2c3c(oc12)CN(CCCCOc1ccc2ccc(=O)[nH]c2c1)CC3 [I-A18, 7-(4-(8-isopropoxy-3,4-dihydrobenzofuro[2,3-c]pyridin-2(1H)-yl)butoxy)quinolin-2(1H)-one] | – | 81.9% | (7.05 ± 0.09) | – | – | –
COc1cccc2c3c(oc12)CN(CC1(O)CCCCC1)CC3 [I-A21, 1-((8-methoxy-3,4-dihydrobenzofuro[2,3-c]pyridin-2(1H)-yl)methyl)cyclohexan-1-ol] | 0.0236 µM | – | (6.28 ± 0.28) | 0.524 µM | 59% | affinity for 5-HT2A receptors (in words) (5-HT2A receptors): very weak affinity; Ki (5-HT2A receptors; [5]): > 10 µM; EC50 (dopamine D2 receptors [4]; [6]): 0.00295 µM; Emax (dopamine D2 receptors [4]): 68%; EC50 (dopamine D2 receptors [4]; [7]): 0.00461 µM
CCOc1cccc2c3c(oc12)CN(CCCCc1ccc2ccc(=O)[nH]c2c1)CC3 [I-A25] | 0.0546 µM | 78% | – | – | 78% | EC50 (dopamine D2 receptors [4]; [6]): 0.00204 µM; Emax (dopamine D2 receptors [4]): 40%; EC50 (dopamine D2 receptors [4]; [7]): 0.00132 µM
CCOc1cccc2c3c(oc12)CN(CC1(O)CCCCC1)CC3 [I-A28, 1-((8-ethoxy-3,4-dihydrobenzofuro[2,3-c]pyridin-2(1H)-yl)methyl)cyclohexan-1-ol] | 0.238 µM | – | (6.99 ± 0.21) | 0.103 µM | 82% | affinity for 5-HT2A receptors (in words) (5-HT2A receptors): very weak affinity; Ki (5-HT2A receptors; [5]): > 10 µM; EC50 (dopamine D2 receptors [4]; [6]): 0.0447 µM; Emax (dopamine D2 receptors [4]): 27%; EC50 (dopamine D2 receptors [4]; [7]): 0.0325 µM
CCOc1cccc2c3c(oc12)CN(CCCCOc1ccc2c(c1)NC(=O)CO2)CC3 [I-A30, 6-(4-(8-ethoxy-3,4-dihydrobenzofuro[2,3-c]pyridin-2(1H)-yl)butoxy)-2H-benzo[b][1,4]oxazin-3(4H)-one] | 0.0237 µM | 74.5% | – | 0.151 µM | 52% | –
CCOc1cccc2c3c(oc12)CN(CCCOc1ccc2c(c1)OCO2)CC3 [I-A31, 2-(3-(benzo[d][1,3]dioxol-5-yloxy)propyl)-8-ethoxy-1,2,3,4-tetrahydrobenzofuro[2,3-c]pyridine] | – | 104% | – | – | – | –
CCOc1cccc2c3c(oc12)CN(CCC1CC(NC(=O)N(C)C)C1)CC3 (centres unmarked) [I-A34, 3-(3-(2-(8-ethoxy-3,4-dihydrobenzofuro[2,3-c]pyridin-2(1H)-yl)ethyl)cyclobutyl)-1,1-dimethylurea] | 0.00281 µM | 38.4% | – | 0.605 µM | 33% | Ki (dopamine D2 receptors [3]; read-out: Affinity pKi ± SEM (converted)): 0.617 µM
CCOc1cccc2c3c(oc12)CN(CCN1CCc2cc(C)ncc2C1=O)CC3 [I-A38, 2-(2-(8-ethoxy-3,4-dihydrobenzofuro[2,3-c]pyridin-2(1H)-yl)ethyl)-6-methyl-3,4-trihydro-2,7-naphthyridin-1(2H)-one] | – | – | – | – | – | Gαi1 BRET Emax % [2]: 116.2%
CCOc1cccc2c3c(oc12)CN(CCCn1ncc(=O)n(C)c1=O)CC3 [I-A44, 2-(3-(8-ethoxy-3,4-dihydrobenzofuro[2,3-c]pyridin-2(1H)-yl)propyl)-4-methyl-1,2,4-triazine-3,5(2H,4H)-dione] | 0.206 µM | 75.9% | – | – | 21% | –
CCOc1cccc2c3c(oc12)CN(CCCCN1C(=O)CC(C)(C)CC1=O)CC3 [I-A45, 1-(4-(8-ethoxy-3,4-dihydrobenzofuro[2,3-c]pyridin-2(1H)-yl)butyl)-4,4-dimethylpiperidine-2,6-dione] | 0.0254 µM | 74.3% | (6.14 ± 0.15) | 0.714 µM | 30% | –
CCOc1cccc2c3c(oc12)CN(CCCCN1C(=O)CC2(CCCC2)CC1=O)CC3 [I-A46, 8-(4-(8-ethoxy-3,4-dihydrobenzofuro[2,3-c]pyridin-2(1H)-yl)butyl)-8-azaspiro[4.5]decane-7,9-dione] | 0.213 µM | 98.5% | – | – | 31% | –
CCOc1cccc2c3c([nH]c12)CN(CC[C@H]1CC[C@H](NC(=O)N(C)C)CC1)CC3 [I-B8, 3-(trans-4-(2-(8-ethoxy-1,3,4,9-tetrahydro-2H-pyrido[3,4-b]indol-2-yl)ethyl)cyclohexyl)-1,1-dimethylurea] | – | 37.9% | (6.41 ± 0.16) | 0.381 µM | – | –
CCOc1cccc2c3c([nH]c12)CN(CCC1CC(NC(=O)N(C)C)C1)CC3 (centres unmarked) [I-B11, 3-(3-(2-(8-ethoxy-1,3,4,9-tetrahydro-2H-pyrido[3,4-b]indol-2-yl)ethyl)cyclobutyl)-1,1-dimethylurea] | – | 22.3% | – | – | – | –

From US20250109139A1, “TRICYCLIC COMPOUND, AND PREPARATION METHOD THEREFOR AND USE THEREOF” (SHANGHAITECH UNIVERSITY, priority 2022, published 2025)
